# From patent US4620971A, “Indium-bleomycin complex” (The United States of America as represented by the …, priority 1983, dated 1986)
# “Also recorded” adds a separate entry of the source.
# How the values were obtained:
# Glioma 26 = assay: Control experiment with cold InCl3, intratumor; type: in vivo, C57 BL/6 mice; conditions: for Host weight / Tumor size: cold, i.t.
# Description: Two control experiments were made with cold InCl3 (InCl3 that had been stored for 4 weeks and was practically nonradioactive, pH=1-3) and cold In-BLMC (prepared with nonradioactive InCl3 by the same method as that used for ^111 In-BLMC, final pH=1.5-3.0). At a tumor age of 6 days, ip injections were given daily for 3 days: Group VII (n=5)--0.2 ml of 0.9% NaCl; Group VIII (n=5)--In-BLMC carried by 0.004 mg BLM/g tumor weight in 0.2 ml of 0.9% NaCl. At a tumor age of 13 days, single doses were given it: Group IX (n=2)--0.7 ml of 0.9% NaCl/g tumor weight; Group X (n=3)--InCl, 0.7 ml/g tumor weight.
# The tumor size (product of the three dimensions in mm^3) and body weight were measured daily for 16 days following the first injection. Host weight was obtained by subtracting tumor weight from body weight, where tumor weight (g)=tumor size (d1 d2 d3, mm^3)×0.00053
# glioma = assay: Gamma images - tumor imaging in glioma-bearing mice; type: in vivo; conditions: 24 hr after i.p. injection
# Source text: The 2- to 3-week-old glioma-bearing mice (tumor size: 1.0-1.5 cm) were given injections of ^111 In-BLMC, ^67 Ga-citrate, or ^111 In-BLM into the orbital sinus (or by ip injection). Images were taken with a gamma camera (Raytheon) immediately, 1, 2, 4, 24, and 48 hr after injection by using a pinhole collimator (1/4 inch diameter), with the distance of 12 cm between mouse and collimator. ^111 In-BLM, and ^111 In-BLMC were obtained according to Examples II and III; ^67 Ga-citrate was commercially obtained from New England Nuclear (NEN), Boston, Mass.
# [1] = Whole body activity retained / excretion in normal mice; type: in vivo, C57BL/6 mice; conditions: ip
# Description: Male 6-week-old C57BL/6 untreated, not tumor-bearing, mice were given intraperitoneal (ip) injectons of 30-40 μCi of ^111 InCl3, ^111 In-BLM-B2, ^111 In-BLM, ^111 In-BLMC or ^57 Co-BLM. At 1, 2, 4, 24, 48, and 72 hr after injection of the radiopharmaceutical, the animal was made to urinate and then the whole body activity was measured in a dose calibrator (FIG. 8).
# serum transferrin = assay: Binding to serum transferrin, in vitro mixtures with plasma (gel electrophoresis); parameters: species or system mice
# Description: Solutions of ^111 In-BLM, ^111 In-BLM-B2, ^111 -In-BLM-A2, ^111 In-BLMC and ^57 Co-BLM were analyzed by TLC using 10% ammonium acetate-methanol (1:1 v/v) as the eluant. After applying 0.2 μl of the samples, cold air was blown over the plate for 1-2 minutes. The plate was placed in a TLC cylinder containing freshly prepared eluant and the cylinder immediately covered with a glass plate. All cylinders were enclosed in a sealed plastic bag together with an open beaker containing eluant in order to maintain a saturated atmosphere. One to three, 48-hour urine samples from normal or gliomabearing mice given injections of ^111 In-BLM or one of its fractions were also analyzed by this TLC procedure. The same urine samples were also analyzed by gel electrophoresis on 5% agarose (Sigma or BRL low EEO) (Hoch, et al Anal Biochem. 78: 312-317, 1977). The aqueous gel was equilibrated against Co2 -saturated 0.02M NaHCO3 and the electrode chambers contained CO2 -saturated 0.1M NaHCO3. […] In vitro mixtures of 5 parts urine from untreated mice and 1 part of solution of ^111 In-BLM or its fraction were similarly analyzed immediately after mixing. […] The same gel electrophoresis procedure was used for ^111 In-BLM, ^111 In-BLMC, ^111 In-BLM-A2, ^111 In-BLM-B2 and ^57 Co-BLM; the dried plates were autoradiographed or analyzed with radiochromatogram scanner. […]
structure (smiles),measurement,setting,value
[Cl][In]([Cl])[Cl] [InCl3],"Tumor size vs NaCl, comparison",Glioma 26; cold InCl3 i.t.,did not affect glioma; also recorded: the tumor sizes increased and were similar
same,Host weight,Glioma 26; day 0 after therapy,20.3 ± 2.5 g
same,Tumor size,Glioma 26; day 0 after therapy,1238 ± 711 mm^3
same,Host weight,Glioma 26; day 1 after therapy,20.4 ± 1.6 g
same,Tumor size,Glioma 26; day 1 after therapy,1741 ± 701 mm^3
same,Host weight,Glioma 26; day 2 after therapy,20.0 ± 1.6 g
same,Tumor size,Glioma 26; day 2 after therapy,1998 ± 559 mm^3
same,Host weight,Glioma 26; day 3 after therapy,20.0 ± 1.5 g
same,Tumor size,Glioma 26; day 3 after therapy,2496 ± 395 mm^3
same,Host weight,Glioma 26; day 4 after therapy,20.0 ± 1.5 g
same,Tumor size,Glioma 26; day 4 after therapy,2720 ± 503 mm^3
same,Host weight,Glioma 26; day 5 after therapy,19.9 ± 1.6 g
same,Tumor size,Glioma 26; day 5 after therapy,3333 ± 276 mm^3
same,Host weight,Glioma 26; day 6 after therapy,17.9 ± 1.9 g
same,Tumor size,Glioma 26; day 6 after therapy,3882 ± 501 mm^3
same,Host weight,Glioma 26; day 7 after therapy,18.8 ± 2.9 g
same,Tumor size,Glioma 26; day 7 after therapy,5015 ± 936 mm^3
same,Host weight,Glioma 26; day 8 after therapy,19.1 ± 2.4 g
same,Tumor size,Glioma 26; day 8 after therapy,5234 ± 1146 mm^3
same,Host weight,Glioma 26; day 9 after therapy,20.3 ± 3.8 g
same,Tumor size,Glioma 26; day 9 after therapy,5988 ± 492 mm^3
O=C([O-])CC(O)(CC(=O)[O-])C(=O)[O-].[67Ga+3] [^67 Ga-citrate],Accumulation of radioactivity in tumor (gamma images),glioma,higher for ^111 In-BLMC (FIG. 9e) than that for ^67 Ga-citrate (FIG. 9d)
same,Activity in liver and background (gamma images),glioma,lower for ^111 In-BLMC than those for ^67 Ga-citrate or ^111 In-BLM
[Cl][111In]([Cl])[Cl] [^111 InCl3],Rate of excretion (from percent activity retained),[1],"rate of excretion increased in the following order, reflecting descreasing binding capacity for transferrin: ^111 InCl3, ^111 In-BLM-B2, ^111 In-BLM, ^57 Co-BLM, ^111 In-BLMC"
same,Binding to transferrin,serum transferrin,binds to serum transferrin in vitro
